Reference: patent US20240158446A1, “CYCLIC COMPOUND HAVING SELECTIVE INHIBITORY ACTION ON KRAS OVER HRAS AND NRAS” (CHUGAI SEIYAKU KABUSHIKI KAISHA, priority 2021, published 2024)
pKd: −log10 of the molar value. Like-named read-outs stand apart in the source and are kept apart here. Where a SMILES comes first, the peptide text is derived from it. Bridges are numbered along the chain shown (N, C = ends). [ ]: non-standard residue; d: D form. The star is where a group is joined. hPhe(3-Cl-4-CF3) = N[C@@H](CCc1ccc(C(F)(F)F)c(Cl)c1)C(=O)O; NPrPhe(4-CF3) = CCCN[C@@H](Cc1ccc(C(F)(F)F)cc1)C(=O)O; NMePhe(4-Me) = CN[C@@H](Cc1ccc(C)cc1)C(=O)O; NMeGly(cPent) = CN[C@H](C(=O)O)C1CCCC1; Gly(N-propargyl) = C#CCNCC(=O)O; NMeD = CN[C@@H](CC(=O)O)C(=O)O; NMeL = CN[C@@H](CC(C)C)C(=O)O; Morpholide = C1CN(*)CCO1; Ac5c = NC1(C(=O)O)CCCC1; NEtG = CCNCC(=O)O; Sar = CNCC(=O)O

Assays:
[1] = target: GDP-bound KRAS wild-type protein (Homo sapiens, UniProt P01116); test: Binding to KRAS by surface plasmon resonance (SPR), Single Cycle Kinetics; settings: GDP-bound KRAS wild-type protein, read-out: KRAS KD
[2] = target: GDP-bound NRAS wild-type protein (Homo sapiens, UniProt P01111); test: Binding to NRAS by surface plasmon resonance (SPR), Single Cycle Kinetics; settings: for NRAS/KRAS (ratio of KD value with respect to NRAS to KD value with respect to KRAS) / NRAS/KRAS (ratio of KD value for NRAS to KD value for KRAS): SPR, GDP-bound NRAS wild-type protein vs GDP-bound KRAS wild-type protein
[3] = target: GDP-bound HRAS wild-type protein (Homo sapiens, UniProt P01112); test: Binding to HRAS by surface plasmon resonance (SPR), Single Cycle Kinetics; settings: for HRAS/KRAS (ratio of KD value with respect to HRAS to KD value with respect to KRAS) / HRAS/KRAS (ratio of KD value for HRAS to KD value for KRAS): SPR, GDP-bound HRAS wild-type protein vs GDP-bound KRAS wild-type protein
[4] = SPR Single Cycle Kinetics, 1:1 binding model

GDP-bound NRAS wild-type protein, sequence (P01111 whole entry): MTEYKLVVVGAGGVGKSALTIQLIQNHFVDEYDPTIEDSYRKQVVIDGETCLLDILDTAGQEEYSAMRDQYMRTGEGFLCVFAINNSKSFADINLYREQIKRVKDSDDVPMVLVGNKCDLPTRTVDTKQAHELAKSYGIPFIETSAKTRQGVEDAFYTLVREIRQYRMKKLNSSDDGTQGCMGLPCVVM
GDP-bound KRAS wild-type protein, sequence (P01116 whole entry): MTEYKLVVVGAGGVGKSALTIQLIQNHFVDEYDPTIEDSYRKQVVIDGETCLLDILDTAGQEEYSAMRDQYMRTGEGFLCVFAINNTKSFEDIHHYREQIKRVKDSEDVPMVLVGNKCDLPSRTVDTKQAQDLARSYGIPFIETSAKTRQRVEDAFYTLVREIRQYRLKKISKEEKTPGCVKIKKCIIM
GDP-bound HRAS wild-type protein, sequence (P01112 whole entry): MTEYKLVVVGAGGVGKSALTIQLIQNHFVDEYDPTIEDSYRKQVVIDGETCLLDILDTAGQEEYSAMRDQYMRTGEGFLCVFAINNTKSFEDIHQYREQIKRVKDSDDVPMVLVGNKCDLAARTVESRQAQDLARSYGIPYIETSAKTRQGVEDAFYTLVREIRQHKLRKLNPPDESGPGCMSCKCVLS

| pKd [1, 4] | pKd ([1]; SPR, Single Cycle Kinetics) | Structure (SMILES) | NRAS/KRAS (ratio of KD value with respect to NRAS to KD value with respect to KRAS) [2] | HRAS/KRAS (ratio of KD value with respect to HRAS to KD value with respect to KRAS) [3] | NRAS/KRAS (ratio of KD value for NRAS to KD value for KRAS) [2] | HRAS/KRAS (ratio of KD value for HRAS to KD value for KRAS) [3] | NRAS/KRAS (ratio of KD value with respect to GDP-bound NRAS wild-type protein to KD value with respect to KRAS) ([2]; SPR KD ratio NRAS/KRAS, class symbols) | HRAS/KRAS (ratio of KD value with respect to GDP-bound HRAS wild-type protein to KD value with respect to KRAS) ([3]; SPR KD ratio HRAS/KRAS, class symbols) |
| --- | --- | --- | --- | --- | --- | --- | --- | --- |
| 9.36 | – | C#CC[C@H]1C(=O)N[C@@H]([C@@H](C)CC)C(=O)N(C)CC(=O)N(C)[C@H]2CCCCCN(C2=O)[C@@H](Cc2ccc(C(F)(F)F)cc2)C(=O)N(C)CC(=O)N[C@@H](CCc2cc(F)c(C(F)(F)F)c(F)c2)C(=O)N2C[C@H](OCC)C[C@H]2C(=O)NC2(CCC2)C(=O)N(C)[C@@H](C2CCCC2)C(=O)N(C)[C@H](C(=O)N2CCOCC2)CC(=O)N1C [PP0681] | B (a compound having 3 or more and less than 10 is denoted as B) | B (a compound having 3 or more and less than 10 is denoted as B) | – | – | – | – |
| – | 9.96 | CCO[C@@H]1C[C@H]2C(=O)NC3(CC(C)(C)C3)C(=O)N(C)[C@@H](C3CCCC3)C(=O)N(C)[C@H](C(=O)N3CCCC3)CC(=O)N(C)[C@H]3CCCCCCc4ccc(cc4)C[C@@H](C(=O)N(C)CC(=O)N[C@@H](CCc4ccc(C(F)(F)F)c(OC)c4)C(=O)N2C1)N1CC/C=C\C[C@@H](C1=O)N(C)C(=O)CN(C)C(=O)[C@H]([C@@H](C)CC)NC3=O [PP3034, (1S,7S,11R,13S,19S,22S,26S,29S,35S,37Z)-19-cyclopentyl-11-ethoxy-7-[2-[3-methoxy-4-(trifluoromethyl)phenyl]ethyl]-3,3′,3′,18,21,25,31,34-octamethyl-29-[(1S)-1-methylpropyl]-22-(pyrrolidine-1-carbonyl)spiro[3,6,9,15,18,21,25,28,31,34,41-undecazapentacyclo[24.15.11.2^43,46.1^35,41.0^9,13]pentapentaconta-37,43(54),44,46(53)-tetraene-16,1′-cyclobutane]-2,5,8,14,17,20,24,27,30,33,55-undecone] | – | – | A (a compound having 10 or more and less than 20 is denoted as A) | B (a compound having 3 or more and less than 10 is denoted as B) | – | – |
| – | 9.44 | CCO[C@@H]1C[C@H]2C(=O)NC3(CC(C)(C)C3)C(=O)N(C)[C@@H](C(CC)CC)C(=O)N(C)[C@H](C(=O)N(C)C)CC(=O)N(C)[C@@H](CC)C(=O)N[C@@H]([C@@H](C)CC)C(=O)N(C)CC(=O)N(C)[C@H]3C/C=C\CCN(C3=O)[C@@H](Cc3ccc(C)cc3)C(=O)N(C)CC(=O)N[C@@H](CCc3ccc(C(F)(F)F)c(Cl)c3)C(=O)N2C1 [PP2154] | – | – | A (a compound having 10 or more and less than 20 is denoted as A) | A (a compound having 10 or more and less than 20 is denoted as A) | – | – |
| 8.32 | – | CC[C@H](C)[C@@H]1NC(=O)[C@H](CC(C)C)N(C)C(=O)C[C@@H](C(=O)N2CCOCC2)N(C)C(=O)[C@H](C2CCCC2)N(C)C(=O)C2(CC2)NC(=O)[C@@H]2CCCN2C(=O)[C@H](CCc2cc(F)c(C(F)(F)F)c(F)c2)NC(=O)CN(C)C(=O)[C@H](Cc2ccc(C(F)(F)F)cc2)N2CCCCC[C@@H](C2=O)N(C)C(=O)CN(C)C1=O [PP0496] | B (a compound having 3 or more and less than 10 is denoted as B) | B (a compound having 3 or more and less than 10 is denoted as B) | – | – | – | – |
| 9.47 | – | CC[C@H](C)[C@@H]1NC(=O)[C@H](CC(C)C)N(C)C(=O)C[C@@H](C(=O)N2CCOCC2)N(C)C(=O)[C@H](C2CCCC2)N(C)C(=O)C2(CCCC2)NC(=O)[C@@H]2CCCN2C(=O)[C@H](CCc2ccc(C(F)(F)F)c(Cl)c2)NC(=O)CN(C)C(=O)[C@H](Cc2ccc(C)cc2)N(C)C(=O)CN(CC)C(=O)CN(C)C1=O [PP0019] ([NMeL]I[Sar][NEtG][NMePhe(4-Me)][Sar][hPhe(3-Cl-4-CF3)]P[Ac5c][NMeGly(cPent)][NMeD]-Morpholide; lactam N-11) | – | – | C (A compound having a KD ratio of 0.1 or more and less than 3 is denoted as C) | C (A compound having a KD ratio of 0.1 or more and less than 3 is denoted as C) | – | – |
| 8.82 | – | CCC[C@H]1C(=O)N[C@@H]([C@@H](C)CC)C(=O)N(C)CC(=O)N(C)[C@H]2C/C=C\CCN(C2=O)[C@@H](Cc2ccc(C(F)(F)F)cc2)C(=O)N(C)CC(=O)N[C@@H](CCc2ccc(C(F)(F)F)c(OC)c2)C(=O)N2CCOC[C@H]2C(=O)NC2(CC(C)(C)C2)C(=O)N(C)[C@@H](C(CC)CC)C(=O)N(C)[C@H](C(=O)N(C)C)CC(=O)N1C [PP2935] | – | – | – | – | A (a compound having 10 or more and less than 20 is denoted as A) | A (a compound having 10 or more and less than 20 is denoted as A) |
| 9.43 | – | C#CCN1CC(=O)N(C)CC(=O)N(CCC)[C@@H](Cc2ccc(C(F)(F)F)cc2)C(=O)N(C)CC(=O)N[C@@H](CCc2ccc(C(F)(F)F)c(Cl)c2)C(=O)N2CCC[C@H]2C(=O)NC2(CCCC2)C(=O)N(C)[C@@H](C2CCCC2)C(=O)N(C)[C@H](C(=O)N2CCOCC2)CC(=O)N(C)[C@@H](CC(C)C)C(=O)N[C@@H]([C@@H](C)CC)C1=O [PP0750] ([NMeL]I[Gly(N-propargyl)][Sar][NPrPhe(4-CF3)][Sar][hPhe(3-Cl-4-CF3)]P[Ac5c][NMeGly(cPent)][NMeD]-Morpholide; lactam N-11) | B (a compound having 3 or more and less than 10 is denoted as B) | C (A compound having a KD ratio of 0.1 or more and less than 3 is denoted as C) | – | – | – | – |
| – | 10.31 | CCO[C@@H]1C[C@H]2C(=O)NC3(CCC3)C(=O)N(C)[C@@H](C3CCCC3)C(=O)N(C)[C@H](C(=O)N(C)C)CC(=O)N(C)[C@@H](CCC(F)F)C(=O)N[C@@H]([C@@H](C)CC)C(=O)N(C)CC(=O)N(C)[C@H]3C/C=C\CCN(C3=O)[C@@H](Cc3ccc(C(F)(F)F)cc3)C(=O)N(C)CC(=O)N[C@@H](CCc3cc(F)c(C(F)(F)F)c(F)c3)C(=O)N2C1 [PP1121, (2S,8S,12R,14S,20S,23S,27S,30S,36S,38Z)-20-cyclopentyl-27-(3,3-difluoropropyl)-8-[2-[3,5-difluoro-4-(trifluoromethyl)phenyl]ethyl]-12-ethoxy-N,N,4,19,22,26,32,35-octamethyl-30-[(1S)-1-methylpropyl]-3,6,9,15,18,21,25,28,31,34,42-undecaoxo-2-[[4-(trifluoromethyl)phenyl]methyl]spiro[1,4,7,10,16,19,22,26,29,32,35-undecazatricyclo[34.5.1.0^10,14]dotetracont-38-ene-17,1′-cyclobutane]-23-carboxamide] | – | – | A (a compound having 10 or more and less than 20 is denoted as A) | A (a compound having 10 or more and less than 20 is denoted as A) | – | – |
| – | 9.82 | CCO[C@@H]1C[C@H]2C(=O)NC3(CCC3)C(=O)N(C)[C@@H](C3CCCC3)C(=O)N(C)[C@H](C(=O)N3CCOCC3)CC(=O)N(C)[C@@H](CC)C(=O)N[C@@H]([C@@H](C)CC)C(=O)N(C)CC(=O)N(C)[C@H]3C/C=C\CCN(C3=O)[C@@H](Cc3ccc(C(F)(F)F)cc3)C(=O)N(C)CC(=O)N[C@@H](CCc3cc(F)c(C(F)(F)F)c(F)c3)C(=O)N2C1 [PP1092] | – | – | A (a compound having 10 or more and less than 20 is denoted as A) | A (a compound having 10 or more and less than 20 is denoted as A) | – | – |
| – | 9.92 | CCCN(C)C(=O)[C@@H]1CC(=O)N(C)[C@@H](C2CCC2)C(=O)N[C@@H]([C@@H](C)CC)C(=O)N(C)CC(=O)N(C)[C@H]2C/C=C\CCN(C2=O)[C@@H](Cc2ccc(C(F)(F)F)cc2)C(=O)N(C)CC(=O)N[C@@H](CCc2ccc(C(F)(F)F)c(OC)c2)C(=O)N2C[C@@H](C)C[C@H]2C(=O)NC2(CCC2)C(=O)N(C)[C@@H](C2CCCC2)C(=O)N1C [PP2072] | – | – | A (a compound having 10 or more and less than 20 is denoted as A) | A (a compound having 10 or more and less than 20 is denoted as A) | – | – |
| 8.55 | – | CC(C)C[C@H]1C(=O)N[C@@H](C2CCC2)C(=O)N(C)CC(=O)N(C)[C@H]2CCCCCN(C2=O)[C@@H](Cc2ccc(C(F)(F)F)cc2)C(=O)N(C)CC(=O)N[C@@H](CCc2cc(F)c(C(F)(F)F)c(F)c2)C(=O)N2CCC[C@H]2C(=O)NC2(CCCC2)C(=O)N(C)[C@@H](C2CCCC2)C(=O)N(C)[C@H](C(=O)N2CCOCC2)CC(=O)N1C [PP0522] | B (a compound having 3 or more and less than 10 is denoted as B) | B (a compound having 3 or more and less than 10 is denoted as B) | – | – | – | – |
| – | 9.66 | CC[C@H](C)[C@@H]1NC(=O)[C@H](C(C)C)N(C)C(=O)C[C@@H](C(=O)N(C)CC)N(C)C(=O)[C@H](C2CCCC2)N(C)C(=O)C2(CCC2)NC(=O)[C@@H]2C[C@H](C)CN2C(=O)[C@H](CCc2ccc(C(F)(F)F)c(OC)c2)NC(=O)CN(C)C(=O)[C@H](Cc2ccc(C(F)(F)F)cc2)N2CC/C=C\C[C@@H](C2=O)N(C)C(=O)CN(C)C1=O [PP2065] | – | – | A (a compound having 10 or more and less than 20 is denoted as A) | B (a compound having 3 or more and less than 10 is denoted as B) | – | – |
